Results published in US20100130476A1, “COMPOUNDS THAT INDUCE PANCREATIC BETA-CELL EXPANSION” (The Scripps Research Institute, priority 2008, published 2010).
Entries after “also recorded” stand apart in the source; their conditions may differ.

Tests used:
65 kinases = experiment: Kinase profiling; assay type: biochemical; conditions: 5 μM; 65 kinases profiled
β-catenin = experiment: Nuclear β-catenin translocation in HEK293 cells; assay type: cell-based; conditions: 10 μM, versus DMSO, listed as 1a
Method: (§1) (A) Chemical structures of 5-thiophene pyrimidines. […] Relative luminescence unit (RLU) was measured by CellTiter-Glo assay after 7-day incubation of growth-arrested R7T1 β cells with 1a, which was added at day 0 and refreshed at day 4; experiments were performed in quadruplicate. All data in this paper are presented as mean±SD, unless otherwise specified. (C) Dose-dependent effects of 1a on the activation of Super (8×) TOPFlash reporter. HEK293 cells transfected with Super (8×) TOPFlash reporter were treated with 1a at the indicated concentrations 24 h after transfection. Luciferase activity was measured 48 h after compound treatment. (D and E) The proliferative effect of 1a on rat primary β cells. (D) After incubation for 72 h with 2 μM 1a, replicating β cells were identified by double-immunofluorescence staining by using anti-C-peptide antibody to mark β cells (green) and antibody against Ki-67, a proliferation marker (red). Nuclear DNA was stained with DAPI (blue). (Scale bar, 10 μm.) (E) The percentage of Ki-67-positive cells of all C-peptide-positive cells, which corresponds to the fraction of replicating β cells. The number of proliferating primary β cells increased after incubation for 72 h in the presence of 2 μM 1a compared with DMSO control: 1a at 2 μM increases the replicating β cells ≈2-fold. […] CellTiter-Glo activity was measured 7 days after compound treatment.

MIN6 cells [1] = experiment: MIN6 β-cell proliferation (BrdU incorporation assay); assay type: cell-based
Method: (§2) R7T1 β-cells are expanded in growth medium (DMEM with 15% horse serum and 2.5% FBS) in the presence of 10 μg/ml doxycycline. (3TC-tet cells are expanded in growth medium (DMEM with 15% horse serum and 2.5% FBS) in the absence of 10 μg/ml doxycycline. Hamster HIT-T15 β-cells are grown in F12 medium with 15% horse serum and 2.5% FBS. MIN6 cells are cultured in DMEM with 15% FBS. HEK293 cells are grown according to instructions from ATCC (http://www.atcc.org/).

GSK3-β = GSK3-β (Homo sapiens, UniProt P49841); experiment: GSK3-β inhibition; assay type: biochemical; conditions: preliminary investigation
[2] = test system: Super (8×) TOPFlash reporter; experiment: Super (8×) TOPFlash Wnt reporter in HEK293 cells; assay type: cell-based
Method: as §1, with “≈2-fold. (F) Compound 1a stimulates the translocation of β-catenin into the nucleus. Nuclear β-catenin accumulation (green arrows) was increased in 10 μM 1a-treated HEK293 cells; in DMSO-treated control cells, β-catenin staining is weak and appears to concentrate at the cell surface.” for “≈2-fold.”

HIT-T15 β cells = experiment: HIT-T15 β-cell proliferation (BrdU incorporation assay); assay type: cell-based, Hamster
Method: as §2

rat primary β cells = experiment: Primary β-cell proliferation assay, rat (C-peptide/Ki-67 double staining); assay type: cell-based; conditions: for increase in replicating primary rat β cells (Ki-67/C-peptide): 72 h, compared with DMSO; for increase in rat C-peptide/Ki-67 double positive β-cells: 72 hours (3 days), concentration not given
Method: (§3) Islets are isolated by the standard Liberase digestion method from the pancreata of adult Sprague-Dawley rats (200-250 g) (Liberase III; Roche Applied Science) and cultured in RPMI medium with 10% FBS. Briefly, 6 ml of ice-cold Liberase solution (Roche Applied Science) is injected into the pancreas via the common bile duct. After dissection, the pancreas is incubated for 35 minutes at 37° C. and then further dissociated by repeated pipetting using a 10-ml pipette. Islets are purified by Histopaque-1.077 (Sigma) density gradient centrifugation and are manually picked using a stereomicroscope. […] Human islets are obtained through the Juvenile Diabetes Research Foundation Islet Distribution Program by Islet Cell Resource Center in Minnesota, USA. The purity and viability of human islets are reported to be 30-70% and 50-70%, respectively. Human islets are cultured in CMRL medium containing 10% FBS.
(§4) Islets or single suspension cells are fixed with 4% formalin solution (Sigma) and stained by standard immuno-fluorescence techniques for C-peptide (anti-human C-peptide antibody from Raybiotech, Inc., and anti-rat C-peptide antibody from Linco, Inc.) and Ki-67 (anti-Ki-67 antibody from Abcam), a marker of proliferating cells. Nuclear DNA is stained with DAPI (Molecular Probes). At least 30,000 C-peptide positive cells are counted in each experiment, performed in triplicate. The images are taken on a Nikon Eclipse TE300 microscope with 200× magnification. Proliferating C-peptide/Ki-67 double positive β-cells are counted manually.

[3] = test system: growth-arrested R7T1 β cells; experiment: R7T1 β-cell proliferation, CellTiter Glo assay (high-throughput screen and follow-up); assay type: cell-based, mouse; conditions: for expansion of the pancreatic β-cell population: high-throughput screen, CellTiter Glo at Day 8, screen concentration 1.25 μM
Method: as §2
R7T1 β-cells are expanded in large quantities in growth medium in the presence of 10 μg/ml doxycycline and then are growth arrested by removal of doxycycline for one week. For the primary screen, growth-arrested cells are plated onto 384- or 1536-well plates in growth medium without doxycycline at a density of 4000 cells/well in 384-well plate or 1000 cells/well in 1536-well plate in an automated high-throughput screening platform (designated as Day 0). […] For data analysis, the median of a plate is calculated and the activity of each well is the signal/median of the plate. A signal in any well over 1.5 of the median is regarded as a primary hit. For the reconfirmation screen, growth-arrested R7T1 cells are plated onto 384-well plates and screened against all primary hits in quadruplicate. To eliminate tetracycline mimetics among all reconfirmed primary hits, βTC-tet cells are plated onto 384-well plates at a density of 2000 cells/well in growth medium in the presence of 10 μg/ml doxycycline, and 1.25 μM compound is added after overnight incubation and refreshed 4 days later. The effects on β-cell replication are then determined at Day 8 using the CellTiter Glo assay system. Any compound that increases the readings more than 1.5 fold is regarded as a hit.
SV40 T antigen (TAg) oncoprotein under the control of the Tet-On system was used to immortalize mouse β cells so that these engineered β cells proliferate when TAg is induced in the presence of tetracycline (Tet), but undergo growth arrest upon withdrawal of Tet (see, Efrat S, et al., Proc. Natl. Acad. Sci. USA 92:3576-3580 (1995); Fleischer N, et al, Diabetes 47:1419-1425 (1998); and Milo-Landesman D, et al., Cell Transplant. 10:645-650 (2001)). Although not a true mimic of in vivo quiescent β cells, this system should allow us to identify small molecules that are able to induce reentry into cell cycle and proliferation of growth-arrested cells. Indeed, these engineered cells express high levels of β-cell signature markers, including insulin 1, insulin 2, and Pdx1, and are able to secrete insulin and restore and maintain euglycemia in STZ-treated diabetic mice when induced to growth arrest and transplanted (see, Efrat S, et al., supra; and Milo-Landesman D, et al., supra). A total of ≈850,000 compounds were screened with an automated high-throughput screening platform for their ability to induce the proliferation of growth-arrested β cells in either a 384- or 1,536-well plate format. In the primary screen, proliferation was assayed by using a luminescent assay measuring intracellular ATP content, which is directly proportional to viable cell number (see, Materials and Methods). To rule out any possible Tet mimetics that induce the proliferation of β cells through the induction of SV40 TAg expression, the Tet-Off immortalized β-cell line βTC-Tet was used for a counterscreen.

[4] = test system: Wnt reporter whose β-catenin/TCF binding sites are mutated; experiment: Mutated Wnt reporter; assay type: cell-based; conditions: data not shown
Ras = Ras activation analysis (GST-Raf1 RBD pull-down); assay type: cell-based, mouse; conditions: growth-arrested R7T1 β cells; for Ras-GTP level / Ras signaling (in words): 0.5 μM
Method: Ras-GTP levels are detected using the Active Ras Pull-Down and Detection Kit, following the manufacturer's instructions (Pierce). Briefly, growth-arrested R7T1 β-cells are treated with 0.5 μM of a compound of the invention for an indicated time. Cells are then washed twice with ice-cold phosphate-buffered saline (PBS) and lysed in Lysis/Binding/Wash Buffer containing protease inhibitor cocktail [Roche]. Lysates (500 μg) are clarified by centrifugation and supernatants are incubated with 80 μg of GST-Raf1-RBD fusion protein precoupled to glutathione-Sepharose beads. After incubation for 1 hour at 4° C., beads are washed three times in Lysis/Binding/Wash Buffer, resuspended in Laemmli buffer and boiled. Samples are analyzed by SDS-PAGE (4-20%) followed by transfer to nitrocellulose membrane and then are probed with anti-Ras antibody. Blots are developed using the enhanced ECL system.

human primary β cells = experiment: Primary β-cell proliferation assay, human (C-peptide/Ki-67 double staining); assay type: cell-based
Method: as §3, §4

[5] = test system: growth-arrested R7T1 β cells; experiment: Microarray analysis of gene expression; assay type: cell-based, mouse
Method: RNA extraction from R7T1 β-cells treated with compounds at the indicated time points is performed using RNeasy kits (Qiagen). The integrity and concentration of RNA is determined by microfluidic analysis on an Experion instrument (BioRad). Standard Affymetrix single amplification is performed using 5 μg total RNA. Standard Affymetrix protocols are used to process Affymetrix MOE430—2 microarrays (Affymetrix). All CEL file images are processed as a single group using gcRMA.

MIN6 cells [6] = experiment: Calcium influx assay (fluo-3, FLIPR); assay type: cell-based; conditions: MIN6 β cells
Method: Calcium Influx Assay.Measurement of intracellular Ca^2+ ([Ca^2+]i) was performed by using a fluorescence laser-imaging plate reader (FLIPR; Molecular Devices). Briefly, MIN6 cells cultured in 384-well plates were incubated for 1 h with 4 μM fluo-3/AM (Molecular Probes) and 0.04% pluronic acid in physiological Locke's buffer (154 mM NaCl, 5.6 mM KCl, 1.0 mM MgCl2, 2.3 mM CaCl2, 8.6 mM Hepes, 5.6 mM glucose, and 0.1 mM glycine [pH 7.4]). After incubation, MIN6 cells were washed with Locke's buffer by using an automated cell washer to remove extracellular dye. MIN6 cells were treated with compounds at the indicated concentrations. These cells were excited at 488 nm and Ca^2+-bound fluo-3 emission was recorded at 500-560 nm.

Chain of GSK3-β (P49841 whole entry, species assumed): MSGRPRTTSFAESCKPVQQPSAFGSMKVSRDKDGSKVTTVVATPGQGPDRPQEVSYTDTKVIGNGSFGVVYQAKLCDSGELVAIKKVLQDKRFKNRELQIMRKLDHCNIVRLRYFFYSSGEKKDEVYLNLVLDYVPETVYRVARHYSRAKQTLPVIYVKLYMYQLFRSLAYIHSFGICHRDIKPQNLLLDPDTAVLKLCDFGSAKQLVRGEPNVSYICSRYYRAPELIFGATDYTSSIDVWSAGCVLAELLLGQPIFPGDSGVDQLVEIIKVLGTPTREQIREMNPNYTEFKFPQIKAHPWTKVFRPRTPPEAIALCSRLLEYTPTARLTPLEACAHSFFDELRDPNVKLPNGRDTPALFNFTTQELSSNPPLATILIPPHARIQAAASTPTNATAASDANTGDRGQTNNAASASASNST

With `CN1CCN(C(=O)c2ccc(Nc3nccc(-c4cccs4)n3)cc2Cl)CC1` [Example 1, (2-chloro-4-(4-(thiophen-2-yl)pyrimidin-2-ylamino)phenyl)(4-methylpiperazin-1-yl)methanone] the “kinases profiled that were inhibited by >75%” value (65 kinases) was 7 of 65, the “nuclear β-catenin accumulation” value (β-catenin) was “Increased nuclear β-catenin accumulation” and the “proliferation of MIN6 β cells (in words)” value (MIN6 cells [1]) was “promote the proliferation”. The IC50 (GSK3-β) was 64 nM, the “activation of the Wnt reporter compared with DMSO” value ([2]; 10 μM) was 15 fold and the EC50 ([2]; Homo sapiens, HEK293 cells, luciferase 48 h after compound treatment, read-out: EC50 of induction of Super (8×) TOPFlash reporter) was ~1250 nM. For the same compound, the “proliferation of HIT-T15 β cells (in words)” value (HIT-T15 β cells) was “promote the proliferation”, the “increase in replicating primary rat β cells (Ki-67/C-peptide)” value (rat primary β cells; 2 μM) was “≈ 2 fold” and the “increase in rat C-peptide/Ki-67 double positive β-cells” value (rat primary β cells) was 2 fold. The EC50 ([3]; Mus musculus, 168 h, CellTiter-Glo after 7-day incubation, read-out: EC50 of replication of growth-arrested R7T1 β cells) was ~1100 nM, the “expansion of the pancreatic β-cell population” value [3] was 2.5 fold and the “activity on mutated Wnt reporter” value [4] was “no activity”.
With `COC(=O)C1=C(C)NC(C)=C([N+](=O)[O-])[C@H]1c1ccccc1C(F)(F)F` [Example 2a, (S)-methyl 2,6-dimethyl-5-nitro-4-(2-(trifluoromethyl)phenyl)-1,4-dihydropyridine-3-carboxylate] the “time of peak Ras-GTP level” value (Ras) was 10 min, the “Ras-GTP level / Ras signaling (in words)” value (Ras) was “elevated; also recorded: Activation” and the “Ras-GTP level / Ras signaling (in words)” value (Ras; listed as (S)-methyl 2,6-dimethyl-5-nitro-4-(2-(trifluoromethyl)phenyl)-1,4-dihydropyridin) was “activates the Ras pathway”. For the same compound, the “proliferation of MIN6 β cells (in words)” value (MIN6 cells [1]) was “increased proliferation”, the “increase in proliferating human primary β cells” value (human primary β cells; 1 μM, 72 h, compared with DMSO) was “≈ 1.5 fold” and the “increase in human C-peptide/Ki-67 double positive β-cells” value (human primary β cells; 72 hours, concentration not given) was 1.5 fold. For the same compound, the “number of proliferating human primary β cells (in words)” value (human primary β cells; human islets, 3 days, 2a 1 μM, Ex-4 5 nM where combined) was “increase the number of proliferating human β cells”, the “expression of IRS2” value ([5]; 0.5 μM) was 1.7 fold and the “expression of Ccnd2 (cyclin D2)” value ([5]; 0.5 μM, 24 h) was “approximately 1.7 fold”. For the same compound, the “expression of RasGEFs (RasGRF1, RasGEF1b) (in words)” value ([5]; 2-6 h after treatment) was “transcriptionally up-regulated; also recorded: activated”, the “expression of Ccnd2 (in words)” value ([5]; 2a 1 μM, Ex-4 5 nM where combined, 2 h to 24 h) was “increased; also recorded: up-regulated” and the “expression of β-cell signature markers insulin 1, insulin 2, Pdx1” value ([5]; pretreatment versus posttreatment, data not shown) was “unchanged”. For the same compound, the “expression of immediate-early genes (Fos, Jun, Egr, Ier families)” value ([5]; within 30 min, 0.5 μM or 1 μM 2a, Ex-4 5 nM where combined) was “large increase; also recorded: highly induced”, the “proliferation of HIT-T15 β cells (in words)” value (HIT-T15 β cells) was “increased proliferation” and the “increase in replicating primary rat β cells (Ki-67/C-peptide)” value (rat primary β cells; 1 μM) was “≈ 2.5 fold”. The “increase in rat C-peptide/Ki-67 double positive β-cells” value (rat primary β cells) was 2.5 fold, the “duration of R7T1 proliferation in the presence of the compound” value [3] was “up to 3 weeks” and the “time to stop of proliferation after removal of the compound” value [3] was ≤ 1 week. The “effect on growth-arrested R7T1 β cells (in words)” value ([3]; CellTiter-Glo, 7 days) was “β-cell proliferation”, the “increase in transient intracellular calcium levels” value (MIN6 cells [6]; fluo-3, FLIPR) was 10 fold and the “calcium influx (in words)” value (MIN6 cells [6]; fluo-3, FLIPR up to 5 min) was “stimulated”.
For `COc1ccc(CCNc2nc(N3CCCC3CO)nc3ccccc23)cc1` (stereo not drawn) [Example 9, (1-(4-(4-methoxyphenethylamino)quinazolin-2-yl)pyrrolidin-2-yl)methanol], the “expansion of the pancreatic β-cell population” value [3] was 3 fold.
With `CC1=C(CC(=O)O)c2cc(F)ccc2/C1=C\c1ccc([S+](C)[O-])cc1` (stereo not drawn) [Sulindac] the “effect on 1a-stimulated Wnt activation” value [2] was “abolished” and the “effect on 1a-stimulated β-cell proliferation” value ([3]; 60 μM Sulindac with 10 μM 1a, CellTiter-Glo after 7 days) was “abolished”.
